3 compounds from patent publication US8697724B2, “Crystalline oxalate salts of a diamide compound” (Theravance, Inc., priority 2010, dated 2014) can be followed below.

Data set [1] is described as follows: Dynamic moisture sorption (DMS) assessment. The data set is classed as physicochemical. On the procedure: A dynamic moisture sorption (DMS) assessment (also known as a moisture sorption-desorption profile) was performed for a sample of Form 2 using a VTI atmospheric microbalance, SGA-100 system (VTI Corp., Hialeah, Fla. 33016). A sample size of approximately 10 mg was used and the humidity was set at the ambient value at the start of the analysis. A typical DMS analysis consisted of three scans: ambient to 5% relative humidity (RH), 5% RH to 90% RH, 90% RH to 5% RH at a scan rate of 5% RH/step. The mass was measured every two minutes and the RH was changed to the next value (+/−5% RH) when the mass of the sample was stable to within 0.01% for 5 consecutive points.

In data set [2] the test system is methacholine (MCh)-induced bronchoconstriction. Description: Einthoven assay: bronchoprotection against methacholine-induced bronchoconstriction. In kind it is in vivo, rat. The settings on record: male Sprague-Dawley rats, inhalation, 100 μg, at 24 h. The protocol:
This assay measures the ability of a test compound to provide bronchoprotection against methacholine (MCh)-induced bronchoconstriction in a rat.
Male Sprague-Dawley rats (Harlan, Indianapolis, Ind.), weighing between 200 g and 350 g, were used for all studies.
Test compound or vehicle (sterile deionized water) were dosed by inhalation (IH) over a 10 min period in a pie shaped inhalation chamber (R+S Molds, San Carlos, Calif.) using 5 mL of dosing solution. Rats were exposed to an aerosol, which was generated from an LC Star Nebulizer Set Model 22F51 (PARI Respiratory Equipment, Inc. Midlothian, Va.) driven by Bioblend (5% CO2/95% atmospheric air) at a pressure of 22 psi. Rats were dosed with 100 μg of test compound unless otherwise indicated.
At predetermined time points, rats were anesthetized with an intraperitoneal (IP) injection of 120 mg/kg inactin (thiobutabarbital). A supplemental dose (40 mg/kg, IP) was administered if the animal responded to physical stimuli (e.g. toe pinch). The surgical site was shaved and a 1-2 cm midline incision of the ventral aspect of the neck was made. […]
Changes in VP were recorded using the Acknowledge Data Collection Software (Santa Barbara, Calif.). […] Changes in ventilation pressure (cm H2O) in treated animals are expressed as % inhibition of MCh response relative to control animals.

Data set [3] in a line: Differential scanning calorimetry (thermal stability). The settings on record: DSC traces, 10° C./min. The data set is classed as physicochemical. On the procedure: Differential scanning calorimetry (DSC) was performed using a TA Instruments Model Q-100 module with a Thermal Analyst controller. Data were collected and analyzed using TA Instruments Thermal Solutions software. A sample of about 2 mg was accurately weighed into an aluminum pan with lid. The sample was evaluated using a linear heating ramp of 10° C./min from ambient temperature to approximately 300° C. The DSC cell was purged with dry nitrogen during use. Representative DSC traces for Form 1 and Form 2 are shown in FIG. 2 and FIG. 5, respectively.
A general note: DSC measures the heat that a sample takes up or gives off during a temperature scan.

[4] abbreviates: reversible moisture sorption/desorption profile.

SMILES strings stand for the structures. Structures can show the parent of a compound that is named as a salt.

As for `CN(CCCCC(=O)Nc1ccc(CNC[C@H](O)c2ccc(O)c3[nH]c(=O)ccc23)cc1)C(=O)CCN1CCC(OC(=O)Nc2ccccc2-c2ccccc2)CC1` [Form 2, Biphenyl-2-ylcarbamic Acid 1-(2-{[4-(4-{[(R)-2-Hydroxy-2-(8-hydroxy-2-oxo-1,2-dihydroquinolin-5-yl)ethylamino]methyl}-phenylcarbamoyl)butyl]methylcarbamoyl}ethyl)piperidin-4-yl Ester Oxalate Hydrate Salt (Form 2)], the “change in physical form during moisture sorption and desorption (PXRD before and after DMS)” value in data set [1] (PXRD profiles before and after the DMS experiment) was “no change in physical form occurred”. In data set [1] (humidity range of 5% RH to 90% RH), the “weight gain (moisture sorption)” value is “about 1.6 weight %”. Besides, in data set [1] (setting [4]), the deliquescence result is listed as “not deliquescent” and the hygroscopicity result is “acceptable hygroscopicity”.

In the case of `CN(CCCCC(=O)Nc1ccc(CNC[C@H](O)c2ccc(O)c3[nH]c(=O)ccc23)cc1)C(=O)CCN1CCC(OC(=O)Nc2ccccc2-c2ccccc2)CC1` [Biphenyl-2-ylcarbamic Acid 1-(2-{[4-(4-{[(R)-2-hydroxy-2-(8-hydroxy-2-oxo-1,2-dihydroquinolin-5-yl)ethylamino]methyl}phenylcarbamoyl)-butyl]methylcarbamoyl}ethyl)piperidin-4-yl Ester Ditrifluoroacetic Acid Salt], the “% inhibition of MCh response” value in data set [2] is recorded as “at least 40%”.

On to `CN(CCCCC(=O)Nc1ccc(CNC[C@H](O)c2ccc(O)c3[nH]c(=O)ccc23)cc1)C(=O)CCN1CCC(OC(=O)Nc2ccccc2-c2ccccc2)CC1` [Form 1, Biphenyl-2-ylcarbamic Acid 1-(2-{[4-(4-{[(R)-2-Hydroxy-2-(8-hydroxy-2-oxo-1,2-dihydroquinolin-5-yl)ethylamino]methyl}-phenylcarbamoyl)butyl]methylcarbamoyl}ethyl)piperidin-4-yl Ester Oxalate Isopropanol Solvate Salt (Form 1)], for which the thermal stability entry in data set [3] is “excellent thermal stability”.
